{
  "source": "patent US9359405B2",
  "about": "“Antagonists of the interleukin-1 receptor” (Phlogo ApS, priority 2011, dated 2016)",
  "key": {"[1]": {"molecular_target": "T1, IL1RI (Homo sapiens, UniProt P14778)", "T1 construct": "The recombinant protein comprising the whole extracellular part of IIL1RI was immobilised on the surface of a CM5 sensor chip", "T1 sequence (P14778 18-336 limits assumed)": "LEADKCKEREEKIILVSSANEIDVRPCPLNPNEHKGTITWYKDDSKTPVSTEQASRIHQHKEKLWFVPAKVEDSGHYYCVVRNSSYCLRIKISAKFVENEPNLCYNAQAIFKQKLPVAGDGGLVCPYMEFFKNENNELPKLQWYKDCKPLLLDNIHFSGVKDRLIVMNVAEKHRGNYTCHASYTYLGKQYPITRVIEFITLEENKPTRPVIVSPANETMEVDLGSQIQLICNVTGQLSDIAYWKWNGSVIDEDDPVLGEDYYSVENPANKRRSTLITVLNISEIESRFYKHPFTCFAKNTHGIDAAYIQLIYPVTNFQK", "assay": "SPR (BiaCore) binding to immobilized IL1RI ectodomain", "settings": "25° C., pH 7.4", "experimental": "Binding analysis was performed using a BiaCore 2000 Instrument (BiaCore AB, Uppsala, Sweden) at 25° C. using 10 mM sodium phosphate (pH 7.4), 150 mM NaCl as running buffer. The flow-rate was 5 μl/min. Data were analysed by nonlinear curve fitting using the manufacturer's software. The recombinant protein comprising the whole extracellular part of IIL1RI was immobilised on the surface of a CM5 sensor chip by means of electrostatic interactions, and the peptide and the IL1β and IL1Ra proteins were injected at various concentrations. The curves corresponding to the difference between binding to peptides and a blank chip were used for analysis."}, "[2]": {"tested_on": "NF-κB activated by IL1β (IL1RI signaling), HEK-Blue IL1β cells", "assay": "IL1RI signaling assay, HEK-Blue IL1β reporter cells (NF-κB/SEAP)", "type": "cell-based", "settings": "IL1β 1.2 μM", "source_text": "(§1) IL1RI signaling assay: Commercially available Blue™ Cytokine Reporter Cell technology from InvivoGen (Denmark distributor: Sigma-Aldrich Denmark) was used. It is represented by an expanding family of engineered cell lines designed to provide a simple, rapid, and reliable method of monitoring the activation of signaling pathways induced by key cytokines. HEK-Blue™ IL1β cells are specifically engineered to selectively respond to IL1β, and they feature the secreted embryonic alkaline phosphatase (SEAP) reporter gene under the control of an NF-κB-inducible promoter. […] A target/receptor-specificity of the Ilantafin effect was verified employing HEK-Blue™ IL6 cells."}, "[3]": {"tested_on": "STAT signalling induced by IL6, HEK-Blue IL6 cells", "assay": "Target specificity, HEK-Blue IL6 cells", "type": "cell-based", "source_text": "as §1"}, "[4]": {"tested_on": "IL1β-activated AMJ2-C8 macrophage cells", "assay": "TNFα secretion by IL1β-activated macrophages (L929/MTS bioassay)", "type": "cell-based", "settings": "IL1β 1.2 μM", "experimental": "The Ilantafin peptide or IL1Ra or IL1RI was added to cultures of macrophages (AMJ2-C8) seeded in 6-well multi-dishes (Nunc) (2.5×10^5 cells/well). After 24 h of incubation at 37° C., IL1β (1.2 μM) was added to the cultures to activate the macrophages. L929 cells were seeded in a 96-well plate at a density of 2×10^5 cells/mL. Both cell cultures were incubated for 24 h at 37° C. Conditioned medium from the macrophage cultures was collected and added to the fibroblast cultures together with 0.6 μg/well actinomycin. D (Sigma-Aldrich). Finally, after 24 h of incubation at 37° C., 20 μl of 3-(4,5-dimethylthiazol-2-yl)-5-(3-carboxymethoxyphenyl)-2-(4-sulfophenyl)-2H-tetrazolium (MTS) (Promega, Madison, Wis., USA) was added to each well and the plates were incubated protected from light, at 37° C., for ˜45 min and the optical density was measured at 490 nm in a Sunrise absorbance reader (Tecan, Männedorf, Switzerland). In order to calculate the amount of TNF-α in the conditioned medium, a standard curve was obtained by treating fibroblasts with different concentrations of TNF-α (R&D systems, Minneapolis, Minn., USA)."}, "[5]": {"tested_on": "cerebellar granule neurons", "assay": "Neurite outgrowth in primary cerebellar granule neurons", "type": "cell-based, rat", "settings": "24 h, primary cerebellar neurons", "experimental": "Cerebellar granular neurons (CGN) were prepared from 3 or 7 postnatal (P) day Wistar rats (Charles River, Sulzfeld, Germany or Taconic, Ejby, Denmark). Cerebella were cleared of meninges and blood vessels, roughly homogenized by chopping, and trypsinized with trypsin from Sigma-Aldrich (Brøndby, Denmark). The neurons were washed in the presence of DNAse 1 and soybean trypsin inhibitor (Sigma-Aldrich), and cellular debris was pelleted by centrifugation before plating. CGNs were plated at a density of 10,000 cells/well onto uncoated eight-well Lab-Tek chamber slides (NUNC, Slangerup, Denmark) in Neurobasal-A medium supplemented with 0.4% (w/v) BSA. Peptides or proteins at various concentrations were added to the medium immediately after plating, and cells were maintained at 37° C. and 5% CO2 for 24 h. Cultures then were fixed, blocked and incubated with polyclonal rabbit antibody against rat GAP-43 (Chemicon, Temecula, Calif., USA) followed by incubation with secondary Alexa Fluor488 goat anti-rabbit antibody (Molecular Probes, Eugene, Oreg., USA) as previously described (Neiiendam et al., 2004). The immunostained cultures were all recorded by computer-assisted fluorescence microscopy using a Nikon Diaphot inverted microscope (Nikon, Japan) equipped with a Nikon Plane 20× objective. Images were captured with a charge-coupled device video camera (Grundig Electronics, Nurnberg, Germany) using the software package Prima developed at the Protein Laboratory (University of Copenhagen, Copenhagen, Denmark). The length of neuronal processes per cell was estimated using the software package Process Length developed at the Protein Laboratory (Ronn et al. 2000). For estimation of neurite outgrowth, at least 200±20 cells were processed for each group in each individual experiment."}, "[6]": {"molecular_target": "T2, IL1RI (Homo sapiens, UniProt P14778)", "T2 construct": "The recombinant protein comprising the whole extracellular part of IIL1RI was immobilised on the surface of a CM5 sensor chip", "assay": "Kb (s^-1)", "source_text": "Table printed on a drawing sheet, Figure 3\nHead of the field: Kb (s^-1)\nFirst copying reader's note: Rate and affinity constants for binding to IL1RI; each cell holds the value with its ± error, and Ilantafin is a peptide while ILRa and IL1β are proteins."}},
  "note": "No end group written: not given here.",
  "data": [
    {"sequence": "SGRKSSKMQA [Ilantafin]", "values": [
      {"measurement": "affinity of interaction with immobilized ectodomain of IL1RI", "setting": "[1]", "result": "within the same order of magnitude as the binding affinities of IL1β and IL1Ra to IL1RI"},
      {"measurement": "inhibition of NF-κB activation induced by IL1β", "setting": "[2]", "result": "inhibits activation of macrophages"},
      {"measurement": "effect on STAT signalling induced by IL6", "setting": "[3]", "result": "does not inhibit signaling induced by IL6"},
      {"measurement": "inhibition of TNFα secretion by IL1β-activated macrophages", "setting": "[4]", "result": "in a dose dependent manner inhibits the IL1β-induced activation of macrophages"},
      {"measurement": "neurite outgrowth", "setting": "[5]", "result": "induce neurite outgrowth in primary cerebellar neurons in a dose-dependent manner"},
      {"measurement": "koff", "setting": "[6]", "result": 0.000753, "unit": "s⁻¹"}
    ]}
  ]
}
